Results from patent publication US12162865B2, “Methods of treating cancer” (Epizyme, Inc., priority 2012, dated 2024).
Entries after “also recorded” stand apart in the source; their conditions may differ. Where two headings read alike, the source gives them in different places.

Assays:
[1] = test system: SMARCB1 regulated genes in RD control cells; assay: Gene expression analysis (qPCR), RD cells; type: cell-based; conditions: 1 μM
Experimental: (§1) Gene expression was normalized to 18S (AB #Hs99999901_s1) and fold change was calculated using the ΔΔCt method. For the in vivo samples, the average Ct value+/−SD was determined for each dose group and fold change compared to vehicle dose group was calculated using the ΔΔCt method.

KARPAS-422 xenografts = assay: KARPAS-422 xenograft in mice; type: in vivo, nude mice; conditions: for antitumor effect, intermittent dosing schedules: 7-day on/7-day off and 21 day on/7 day off
SETD7 = SETD7 (Homo sapiens, UniProt Q8WTS6); assay: Histone methyltransferase inhibition, SETD7; type: biochemical; conditions: read-out: % Inhibition at 1 μM Compound A, mean and SD of duplicate experiments
EHMT1 = EHMT1 (Homo sapiens, UniProt Q9H9B1); assay: Histone methyltransferase inhibition, EHMT1; type: biochemical
DOT1L = DOT1L (Homo sapiens, UniProt Q8TEK3); assay: Histone methyltransferase inhibition, DOT1L; type: biochemical
WSU-DLCL2 cells [2] = assay: Cell cycle progression and apoptosis (TUNEL), WSU-DLCL2; type: cell-based, human
EHMT2 = EHMT2 (Homo sapiens, UniProt Q96KQ7); assay: Histone methyltransferase inhibition, EHMT2; type: biochemical
[3] = test system: SMARCB1 regulated genes in G401 cells; assay: Gene expression analysis (qPCR), G401 cells; type: cell-based; conditions: 1 μM, up to 7 days, time-dependent
Experimental: as §1

G401 cells = conditions: pretreated 7 days, replated on day 0
Experimental: SJCRH30 cells were cultured in RPMI+10% FBS. A204, G401, and G402 cells were cultured in McCoys 5a+10% FBS. KYM-1 cells were cultured in DMEM/Ham's F12+10% FBS.
Plates were read on Day 0, Day 4, and Day 7 using CellTiter-Glo® (Promega), with compound/media being replenished on Day 4. On Day 7, the 6-well plates were trypsinized, centrifuged, and resuspended in fresh media for counting by Vi-Cell. Cells from each treatment were replated at the original density in 96-well plates in triplicate. Cells were allowed to adhere to the plate overnight, and cells were treated as on Day 0. […] Averages of triplicates were used to plot proliferation over the timecourse, and calculate IC50 values.

CARM1 = CARM1 (Homo sapiens, UniProt Q86X55); assay: Histone methyltransferase inhibition, CARM1; type: biochemical
[4] = test system: RD SMARCB1 wild-type cells; assay: Cell cycle analysis (flow cytometry) and TUNEL assay, RD; type: cell-based; conditions: 1 μM, up to 14 days
Experimental: (§2) Cell cycle analysis and TUNEL assay were performed using a Guava® flow cytometer, following the manufacturer's protocol.

[5] = test system: G402 SMARCB1-deleted cells; assay: Cell morphology, G402 cells; type: cell-based; conditions: 1 μM, 14 days
PRMT5/MEP50 = PRMT5/MEP50 (Homo sapiens, UniProt O14744); assay: Histone methyltransferase inhibition, PRMT5/MEP50; type: biochemical
PRMT3 = PRMT3 (Homo sapiens, UniProt O60678); assay: Histone methyltransferase inhibition, PRMT3; type: biochemical; conditions: read-out: % Inhibition at 1 μM Compound A, mean and SD of duplicate experiments
SMYD2 = SMYD2 (Homo sapiens, UniProt Q9NRG4); assay: Histone methyltransferase inhibition, SMYD2; type: biochemical
WHSC1L1 = WHSC1L1 (Homo sapiens, UniProt Q9BZ95); assay: Histone methyltransferase inhibition, WHSC1L1; type: biochemical
[6] = test system: G401 SMARCB1-deleted cells; assay: Cell cycle analysis (flow cytometry) and TUNEL assay, G401; type: cell-based; conditions: 1 μM, up to 14 days
Experimental: as §2

H3K27Me3 in RD cells = conditions: 4 days, acid-extracted histones, immunoblot
Experimental: (§3) A204, G401, and G402 cells were cultured in McCoys 5a+10% FBS.
(§4) Cells were pelleted, washed with ice cold PBS, resuspended in ice cold RIPA buffer, and incubated on ice for 5 minutes. Lysates were sonicated 3× for 10 sec at 50% power, then incubated on ice for 10 minutes. Lysates were then centrifuged at max speed for 15 minutes at 4 degrees in a table top centrifuge. Clarified lysates were aliquoted to a fresh tube, and protein concentrations for WCL were determined by BCA assay (Pierce).

PRMT8 = PRMT8 (Homo sapiens, UniProt Q9NR22); assay: Histone methyltransferase inhibition, PRMT8; type: biochemical
SMYD3 = SMYD3 (Homo sapiens, UniProt Q9H7B4); assay: Histone methyltransferase inhibition, SMYD3; type: biochemical; conditions: read-out: % Inhibition at 1 μM Compound A, mean and SD of duplicate experiments
[7] = test system: WSU-DLCL2 Human Lymphoma Cells; assay: Washout experiments, WSU-DLCL2 proliferation (LCC); type: cell-based
WHSC1 = WHSC1 (Homo sapiens, UniProt O96028); assay: Histone methyltransferase inhibition, WHSC1; type: biochemical
PRMT6 = PRMT6 (Homo sapiens, UniProt Q96LA8); assay: Histone methyltransferase inhibition, PRMT6; type: biochemical; conditions: read-out: % Inhibition at 1 μM Compound A, mean and SD of duplicate experiments
OCI-LY19 cells = conditions: OCI-LY19 (EZH2 wild type for residue Y641)
[8] = Oral administration to rodents (bioavailability); type: in vivo; conditions: administered to rodents
PRMT1 = PRMT1 (Homo sapiens, UniProt Q99873); assay: Histone methyltransferase inhibition, PRMT1; type: biochemical
[9] = test system: subcutaneous G401 xenografts
Experimental: ELISA: Histones were isolated from tumors as previously described (Daigle et al) and were prepared in equivalent concentrations (0.5 ng/ul for H3 and 4 ng/ul for H3K27Me3) in coating buffer (PBS with 0.05% BSA). […] The plates were sealed and incubated overnight at 4° C. The following day, plates were washed 3 times with 300 μL/well PBST (PBS with 0.05% Tween 20; 10×PBST, KPL #51-14-02) on a Bio Tek plate washer. Plates were blocked with 300 μL/well of diluent (PBS+2% BSA+0.05% Tween 20), incubated at room temperature for 2 hours, and washed 3 times with PBST. All antibodies were diluted in diluent. […] Plates were incubated for 90 minutes at room temperature and washed 3 times with PBST. […] Plates were washed 4 times with PBST. For detection, 100 μL/well of TMB substrate (BioFx Laboratories, #TMBS) was added and plates incubated in the dark at room temperature for 5 minutes. Reaction was stopped with 100 μL/well 1N H2SO4. Absorbance at 450 nm was read on SpectraMax M5 Microplate reader.
Xenograft study: All the procedures related to animal handling, care and the treatment in this study were performed according to the guidelines approved by the Institutional Animal Care and Use Committee (IACUC) of Shanghai Chemparner following the guidance of the Association for Assessment and Accreditation of Laboratory Animal Care (AAALAC). […] Animal body weights were measured every day during the first week, then twice weekly for the remainder of the study. Tumor size was measured twice weekly in two dimensions using a caliper, and the volume was expressed in mm^3. […] The remaining mice continued dosing for one more week, and from day 29, treatment was stopped and the mice were enrolled in a tumor growth delay study. Mice were observed as individuals until they reached the tumor weight endpoint (2000 mm^3) or until day 60 (whichever came first).

H3K27Me3 in G401 cells = conditions: 4 days, acid-extracted histones, immunoblot
Experimental: as §3, §4

WSU-DLCL2 cells [10] = conditions: with mouse plasma protein binding considered
Pfeiffer cells = conditions: Pfeiffer (EZH2 A677G); 11-day proliferation
[11] = test system: G401 SNF mutant cell line; assay: Soft agar growth, G401; type: cell-based; conditions: after 7 days
[12] = test system: SNF5 mutant cell line A204; assay: Response of cell lines to Compound E (FIG. 2), A204; type: cell-based
[13] = test system: ATRX mutant SCLC line SW1271; assay: Response of ATRX mutant SCLC lines to Compound E, SW1271; type: cell-based
[14] = test system: ATRX mutant SCLC line NCI-H446; assay: Response of ATRX mutant SCLC lines to Compound E, NCI-H446; type: cell-based
[15] = test system: ATRX mutant SCLC line NCI-H841; assay: Response and morphology of ATRX mutant SCLC line NCI-H841 with Compound E; type: cell-based
[16] = test system: SNF5 mutant cell line G401; assay: Response of cell lines to Compound E (FIG. 2), G401; type: cell-based
[17] = test system: SNF5 mutant cell line G402; assay: Response of cell lines to Compound E (FIG. 2), G402; type: cell-based
[18] = test system: LNCAP prostate cancer cells; assay: Cell growth inhibition in vitro, LNCAP; type: cell-based
[19] = read-out: % Inhibition at 1 μM Compound A, mean and SD of duplicate experiments
[20] = 4-day Compound A, 11-day Washout
[21] = 7-day Compound A, 7-day Washout

Sequence of CARM1 (Q86X55 whole entry, species assumed): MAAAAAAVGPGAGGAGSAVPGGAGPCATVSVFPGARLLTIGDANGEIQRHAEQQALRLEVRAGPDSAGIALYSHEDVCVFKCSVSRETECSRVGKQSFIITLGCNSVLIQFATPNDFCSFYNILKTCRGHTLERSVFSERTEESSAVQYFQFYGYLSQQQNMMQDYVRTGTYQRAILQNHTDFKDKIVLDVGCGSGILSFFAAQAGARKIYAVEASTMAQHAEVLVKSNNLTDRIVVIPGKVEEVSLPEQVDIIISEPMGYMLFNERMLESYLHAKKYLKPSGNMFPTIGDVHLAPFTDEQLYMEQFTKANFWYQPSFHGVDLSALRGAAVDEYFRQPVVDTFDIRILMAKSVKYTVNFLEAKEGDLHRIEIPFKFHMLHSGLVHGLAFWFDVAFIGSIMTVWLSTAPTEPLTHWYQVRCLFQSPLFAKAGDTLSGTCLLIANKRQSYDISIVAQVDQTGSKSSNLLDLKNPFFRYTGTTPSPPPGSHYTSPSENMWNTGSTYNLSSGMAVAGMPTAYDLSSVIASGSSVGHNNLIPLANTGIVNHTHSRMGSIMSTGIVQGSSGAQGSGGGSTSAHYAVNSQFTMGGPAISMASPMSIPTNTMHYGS
Sequence of EHMT1 (Q9H9B1 whole entry, species assumed): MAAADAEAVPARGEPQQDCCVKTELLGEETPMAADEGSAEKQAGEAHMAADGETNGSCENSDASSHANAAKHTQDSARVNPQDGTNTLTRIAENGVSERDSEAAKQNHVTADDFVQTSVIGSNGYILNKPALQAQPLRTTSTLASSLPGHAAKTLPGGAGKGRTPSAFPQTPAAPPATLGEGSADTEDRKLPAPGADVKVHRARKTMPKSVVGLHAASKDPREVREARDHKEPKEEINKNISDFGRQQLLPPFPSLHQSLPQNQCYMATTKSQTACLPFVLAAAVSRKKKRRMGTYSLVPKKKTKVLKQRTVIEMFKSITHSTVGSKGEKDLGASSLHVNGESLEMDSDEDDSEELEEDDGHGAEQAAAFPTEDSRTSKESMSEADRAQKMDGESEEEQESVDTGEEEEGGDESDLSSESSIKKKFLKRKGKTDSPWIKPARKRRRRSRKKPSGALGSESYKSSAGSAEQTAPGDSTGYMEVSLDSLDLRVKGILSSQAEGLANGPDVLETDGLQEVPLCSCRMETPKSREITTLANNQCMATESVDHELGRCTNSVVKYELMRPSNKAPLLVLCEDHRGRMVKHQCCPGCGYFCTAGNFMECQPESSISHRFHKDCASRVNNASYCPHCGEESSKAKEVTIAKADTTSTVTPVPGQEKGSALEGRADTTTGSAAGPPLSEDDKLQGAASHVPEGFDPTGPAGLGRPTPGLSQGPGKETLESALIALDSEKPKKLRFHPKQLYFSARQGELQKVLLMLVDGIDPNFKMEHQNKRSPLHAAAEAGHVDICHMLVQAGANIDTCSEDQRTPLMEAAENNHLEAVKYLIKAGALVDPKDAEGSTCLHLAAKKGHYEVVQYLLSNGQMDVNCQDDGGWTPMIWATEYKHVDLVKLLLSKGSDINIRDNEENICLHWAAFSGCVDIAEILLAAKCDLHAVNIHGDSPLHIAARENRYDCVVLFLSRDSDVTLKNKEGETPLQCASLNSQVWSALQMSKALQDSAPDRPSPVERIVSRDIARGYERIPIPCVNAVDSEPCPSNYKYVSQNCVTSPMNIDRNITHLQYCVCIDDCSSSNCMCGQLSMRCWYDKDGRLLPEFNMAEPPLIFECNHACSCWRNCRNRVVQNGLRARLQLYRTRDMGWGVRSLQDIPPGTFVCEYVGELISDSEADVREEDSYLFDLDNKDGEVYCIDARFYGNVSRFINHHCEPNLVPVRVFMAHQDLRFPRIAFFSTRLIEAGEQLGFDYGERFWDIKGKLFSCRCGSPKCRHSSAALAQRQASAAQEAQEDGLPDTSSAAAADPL
Sequence of PRMT5/MEP50 (O14744 whole entry, species assumed): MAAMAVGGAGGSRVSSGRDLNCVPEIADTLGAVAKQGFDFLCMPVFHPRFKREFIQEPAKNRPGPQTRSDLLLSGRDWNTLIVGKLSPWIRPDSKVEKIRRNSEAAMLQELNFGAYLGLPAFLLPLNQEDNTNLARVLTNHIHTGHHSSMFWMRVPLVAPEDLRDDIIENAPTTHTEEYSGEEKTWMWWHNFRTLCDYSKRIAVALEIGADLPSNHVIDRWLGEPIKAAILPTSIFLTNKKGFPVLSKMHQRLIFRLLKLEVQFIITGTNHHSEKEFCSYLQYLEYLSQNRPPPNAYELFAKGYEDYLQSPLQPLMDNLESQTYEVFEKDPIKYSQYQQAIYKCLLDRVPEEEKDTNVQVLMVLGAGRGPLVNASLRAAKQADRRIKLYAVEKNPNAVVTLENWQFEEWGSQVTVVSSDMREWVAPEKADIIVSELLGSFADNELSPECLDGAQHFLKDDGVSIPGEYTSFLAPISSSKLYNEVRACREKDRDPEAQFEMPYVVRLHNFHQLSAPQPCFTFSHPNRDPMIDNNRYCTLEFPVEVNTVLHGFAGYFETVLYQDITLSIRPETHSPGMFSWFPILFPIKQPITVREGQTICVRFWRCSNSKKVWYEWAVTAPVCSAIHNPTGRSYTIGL
Sequence of PRMT5/MEP50 (Q9BQA1 whole entry partner, species assumed): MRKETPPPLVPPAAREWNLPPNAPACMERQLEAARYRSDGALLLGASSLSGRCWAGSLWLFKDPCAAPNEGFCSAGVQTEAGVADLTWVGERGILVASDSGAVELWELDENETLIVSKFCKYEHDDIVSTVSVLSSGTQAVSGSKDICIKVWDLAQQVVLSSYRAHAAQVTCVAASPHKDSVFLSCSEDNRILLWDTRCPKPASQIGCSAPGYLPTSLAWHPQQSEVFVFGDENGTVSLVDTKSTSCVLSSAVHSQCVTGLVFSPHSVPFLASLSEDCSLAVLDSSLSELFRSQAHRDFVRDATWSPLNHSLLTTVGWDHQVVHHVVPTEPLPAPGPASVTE
Sequence of SMYD2 (Q9NRG4 whole entry, species assumed): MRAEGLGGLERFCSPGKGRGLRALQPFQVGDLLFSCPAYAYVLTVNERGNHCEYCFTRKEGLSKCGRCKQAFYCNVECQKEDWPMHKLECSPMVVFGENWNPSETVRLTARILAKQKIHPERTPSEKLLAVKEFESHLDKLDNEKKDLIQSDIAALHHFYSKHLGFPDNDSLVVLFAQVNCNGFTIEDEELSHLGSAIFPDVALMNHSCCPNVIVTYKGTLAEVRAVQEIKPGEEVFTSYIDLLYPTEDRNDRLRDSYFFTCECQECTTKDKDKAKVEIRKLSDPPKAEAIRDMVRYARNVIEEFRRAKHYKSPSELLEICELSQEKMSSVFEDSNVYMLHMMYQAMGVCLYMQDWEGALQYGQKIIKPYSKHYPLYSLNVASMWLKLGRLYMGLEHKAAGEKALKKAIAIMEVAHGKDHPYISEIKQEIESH
Sequence of PRMT1 (Q99873 whole entry, species assumed): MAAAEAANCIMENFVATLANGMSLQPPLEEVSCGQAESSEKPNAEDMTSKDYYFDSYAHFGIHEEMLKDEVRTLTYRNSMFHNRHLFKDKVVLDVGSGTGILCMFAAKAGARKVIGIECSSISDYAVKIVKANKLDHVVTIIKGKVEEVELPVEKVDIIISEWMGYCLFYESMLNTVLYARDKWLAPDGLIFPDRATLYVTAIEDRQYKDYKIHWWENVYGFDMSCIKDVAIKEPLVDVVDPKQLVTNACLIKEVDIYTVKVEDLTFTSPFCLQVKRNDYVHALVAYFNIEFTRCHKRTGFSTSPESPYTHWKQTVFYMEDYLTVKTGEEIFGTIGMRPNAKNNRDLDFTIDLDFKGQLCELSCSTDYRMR
Sequence of PRMT8 (Q9NR22 whole entry, species assumed): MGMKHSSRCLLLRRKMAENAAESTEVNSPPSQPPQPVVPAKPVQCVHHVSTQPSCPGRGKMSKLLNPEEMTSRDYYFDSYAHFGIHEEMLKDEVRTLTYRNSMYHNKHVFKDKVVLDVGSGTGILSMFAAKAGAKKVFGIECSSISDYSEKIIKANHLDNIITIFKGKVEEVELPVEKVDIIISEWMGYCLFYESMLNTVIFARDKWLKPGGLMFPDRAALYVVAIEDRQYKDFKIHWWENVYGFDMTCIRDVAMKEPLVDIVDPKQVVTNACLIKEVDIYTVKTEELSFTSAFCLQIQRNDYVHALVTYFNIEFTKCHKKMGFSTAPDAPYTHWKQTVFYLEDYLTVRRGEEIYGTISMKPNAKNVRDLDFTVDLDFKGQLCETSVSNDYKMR
Sequence of SETD7 (Q8WTS6 whole entry, species assumed): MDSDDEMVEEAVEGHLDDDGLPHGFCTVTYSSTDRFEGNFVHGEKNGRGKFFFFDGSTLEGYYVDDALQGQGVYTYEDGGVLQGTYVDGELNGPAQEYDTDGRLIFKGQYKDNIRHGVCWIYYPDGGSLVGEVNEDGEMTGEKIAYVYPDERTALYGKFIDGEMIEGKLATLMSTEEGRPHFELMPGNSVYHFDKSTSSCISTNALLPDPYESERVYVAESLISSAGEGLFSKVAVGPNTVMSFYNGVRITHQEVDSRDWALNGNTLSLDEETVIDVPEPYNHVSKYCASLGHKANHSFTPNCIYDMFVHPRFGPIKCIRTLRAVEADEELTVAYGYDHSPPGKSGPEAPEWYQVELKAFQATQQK
Sequence of SMYD3 (Q9H7B4 whole entry, species assumed): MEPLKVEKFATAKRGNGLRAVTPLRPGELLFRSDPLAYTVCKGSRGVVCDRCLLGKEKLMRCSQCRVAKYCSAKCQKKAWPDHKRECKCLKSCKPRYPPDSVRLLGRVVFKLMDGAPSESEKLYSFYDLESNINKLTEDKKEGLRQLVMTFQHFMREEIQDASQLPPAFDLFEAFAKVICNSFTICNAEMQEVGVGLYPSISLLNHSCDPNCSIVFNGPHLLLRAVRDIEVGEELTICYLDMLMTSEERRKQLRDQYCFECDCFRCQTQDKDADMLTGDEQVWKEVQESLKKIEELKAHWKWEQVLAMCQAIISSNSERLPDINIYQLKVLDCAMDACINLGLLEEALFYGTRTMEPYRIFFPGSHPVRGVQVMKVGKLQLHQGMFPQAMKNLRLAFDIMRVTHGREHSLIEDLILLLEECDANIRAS

CCN(c1cc(-c2ccc(CN3CCOCC3)cc2)cc(C(=O)NCc2c(C)cc(C)[nH]c2=O)c1C)C1CCOCC1 [Compound A, N-((4,6-dimethyl-2-oxo-1,2-dihydropyridin-3-yl)methyl)-5-(ethyl (tetrahydro-2H-pyran-4-yl)amino)-4-methyl-4′-(morpholinomethyl)-[1,1′-biphenyl]-3-carboxamide]
expression of the SMARCB1 regulated genes [1]: minimal effect on expression | antitumor effect, intermittent dosing schedules (KARPAS-422 xenografts; 90 mg/kg BID): tumor growth inhibition | antitumor effect, intermittent dosing schedules (KARPAS-422 xenografts; 361 mg/kg BID): complete regressions | tumor H3K27Me3 levels (KARPAS-422 xenografts; 7-day study, nude mice, BID and QD schedules): dose-dependent reduction of tumor H3K27Me3 levels | tumor re-growth after cessation of dosing (KARPAS-422 xenografts; higher doses, up to 90 days after cessation of dosing): no re-growth | inhibition at 1 µM (SETD7): 4 ± 3% | IC50 (EHMT1; one experiment): > 50 µM | inhibition at 1 µM (EHMT1; [19]): 6 ± 6% | IC50 (DOT1L; one experiment): > 50 µM | inhibition at 1 µM (DOT1L; [19]): 2 ± 8% | sub-G1 fraction (WSU-DLCL2 cells [2]; 1 μM, 7 days): no apparent increase in the sub-G1 fraction | cell cycle progression (WSU-DLCL2 cells [2]; 1 μM, apparent after 2 days, maximum after 4 days): increase in the percentage of cells in G1 phase, and a decrease in the percentage of cells in S phase and G2/M phase | fraction of apoptotic cells (TUNEL assay) (WSU-DLCL2 cells [2]; day 14 compared to vehicle): significantly increased | IC50 (EHMT2; one experiment): > 50 µM | inhibition at 1 µM (EHMT2; [19]): 7 ± 3% | expression of CDKN1A, CDKN2A and BIN1 [3]: up-regulated cell cycle inhibitors CDKN1A and CDKN2A and tumor suppressor BIN1 | expression of neuronal differentiation genes CD133, DOCK4, PTPRK [3]: strongly induced expression of CD133, DOCK4 and PTPRK | sensitivity in vitro (cell viability, CellTiter-Glo) (G401 cells): sensitive | IC50 (CARM1; mean of duplicate experiments): > 50 µM | inhibition at 1 µM (CARM1; read-out: % Inhibition at 1 μM Compound A, mean and standard deviation of duplicate experiments): 5 ± 3% | cell cycle and apoptosis compared to DMSO control [4]: no changes in cell cycle or apoptosis | cell morphology [5]: neuron-like morphology | IC50 (PRMT5/MEP50; one experiment): > 50 µM | inhibition at 1 µM (PRMT5/MEP50; [19]): 2 ± 6% | inhibition at 1 µM (PRMT3): 2 ± 2% | IC50 (SMYD2; one experiment): > 50 µM | inhibition at 1 µM (SMYD2; [19]): 1 ± 2% | IC50 (WHSC1L1; one experiment): > 100 µM | inhibition at 1 µM (WHSC1L1; [19]): 9 ± 8% | cell cycle (G1 arrest) [6]: increase in the percentage of cells in G1 phase, and a concomitant decrease in S phase and G2/M phase after 7 days; also recorded: G1 arrest was observed as of day 7 | sub-G1 fraction and apoptotic cells (TUNEL assay) [6]: increased in a time dependent manner; also recorded: apoptosis was induced as of day 11 | specificity for inhibition of cellular histone methylation (H3K27Me3 in RD cells): selective inhibition of cellular H3K27 methylation | IC50 (PRMT8; one experiment): > 50 µM | inhibition at 1 µM (PRMT8; [19]): 7 ± 3% | inhibition at 1 µM (SMYD3): 0% | Day 11 LCC [7, 20]: 0.36 µM | Day 14 LCC [7, 20]: 0.42 µM | Day 11 LCC [7, 21]: 0.19 µM | Day 14 LCC [7, 21]: 0.075 µM | Day 11 LCC ([7]; No Washout): 0.17 µM | Day 14 LCC ([7]; No Washout): 0.11 µM | IC50 (WHSC1; one experiment): > 100 µM | inhibition at 1 µM (WHSC1; [19]): 8 ± 3% | inhibition at 1 µM (PRMT6): 3 ± 3% | growth over 11 days (OCI-LY19 cells): not significantly affected | oral bioavailability [8]: excellent | IC50 (PRMT1; one experiment): > 50 µM | inhibition at 1 µM (PRMT1; [19]): 5 ± 4% | tumor growth after the dosing period compared to vehicle ([9]; 125 mg/kg): significant tumor growth delay | tumor growth after dosing stop compared to vehicle ([9]; 133 mg/kg): significant tumor growth delay | tumor re-growth ([9]; 250 or 500 mg/kg BID, 32 days after dose cessation): Re-growth was not observed | antitumor effect ([9]; 250 or 500 mg/kg twice daily (BID) for 21 to 28 days): practically eliminated | antitumor effect ([9]; 266 or 532 mg/kg BID for 28 days): eliminated | tumor re-growth ([9]; 266 or 532 mg/kg BID, study end, 32 days after dosing stop): re-growth was not observed | plasma levels (systemic exposure) ([9]; 5 min before or 3 h after dosing on day 21, LC-MS/MS): dose-dependent increase in systemic exposure | gene expression in G401 xenograft tumors ([9]; treated 21 days, qPCR): dose-dependent changes in the expression of CD133, PTPRK, DOCK4 and GLI1 | H3K27me3 in tumors (ELISA) ([9]; tumors harvested on day 21, maximum effect at 250 mg/kg): strong inhibition of H3K27me3 | specificity for inhibition of cellular histone methylation (H3K27Me3 in G401 cells): selective inhibition of cellular H3K27 methylation | LCC for WSU-DLCL2 cells as plasma level (WSU-DLCL2 cells [10]): 1652 ng/mL | increase in sensitivity over the Y641 mutant cell lines, measured by IC50 value (Pfeiffer cells): 20 fold | increase in sensitivity over the Y641 mutant cell lines, measured by LCC (Pfeiffer cells): 300 fold

CCN(c1cc(-c2ccc(CN3CCOCC3)cc2)cc(C(=O)NCc2c(C)cc(C)[nH]c2=O)c1C)[C@H]1CC[C@H](N(C)C)CC1 [Compound E, N-((4,6-dimethyl-2-oxo-1,2-dihydropyridin-3-yl)methyl)-5-(((1r,4r)-4-(dimethylamino)cyclohexyl)(ethyl)amino)-4-methyl-4′-(morpholinomethyl)-[1,1′-biphenyl]-3-carboxamide]
response in soft agar compared to wild type cells RD [11]: responding | response compared to wild type cell lines RD and SJCRH30 [12]: selectively respond | response [13]: responding | response [14]: responding | response [15]: responding | cell morphology ([15]; 4.1E-02 uM or 3.3 uM): changes morphology | response compared to wild type cell lines RD and SJCRH30 [16]: selectively respond | response compared to wild type cell lines RD and SJCRH30 [17]: selectively respond | cell growth inhibition [18]: dose-dependent cell growth inhibition
